Measurements published in patent publication US9242937B2, “Pharmaceutically active disubstituted pyridine derivatives” (Bayer Intellectual Property GmbH, priority 2011, dated 2016).
pIC50, pKd: −log10 of the molar value.

Legend:
CDK9/Cyclin T1 = molecular target: T1, CDK9/Cyclin T1 (Homo sapiens, UniProt P50750); test: LanthaScreen Eu Kinase Binding Assay, CDK9/Cyclin T1; settings: tracer 236, read-out: CDK9/Cyclin T1 (activity range), Kd
T1 construct: purchased Invitrogen
Method: (§1) This protocol describes how the LanthaScreen Eu Kinase Binding Assay was performed to determine dissociation constants (Kd) of compounds of general formula (I) and CDK/Cyclin complexes. The principle behind this assay is based upon the binding and displacement of an Alexa Fluor 647-labeled tracer, which binds to the active site of kinases. Binding of the tracer to the kinase is detected using a Eu-labeled antibody. Simultaneous binding of both the tracer and antibody to the kinase gives rise to a FRET-signal. Binding of an inhibitor to the kinase competes for binding with the tracer, resulting in a loss of FRET.
(§2) The compounds of general formula (I) summarized in Table 1 were diluted from a 10 mM DMSO stock solution 1:10 in a total volume of 15 μL DMSO. This compound predilution was then serial diluted 1:3 over 8 steps in DMSO and briefly spun down. Each compound solution was now diluted 1:33.33 in kinase buffer (HEPES: 20 mM, pH: 8.0; MgCl2: 10 mM; DTT: 1 mM; Brij-35: 0.01%), mixed thoroughly and spun down. For every sample, 5 μL of the diluted compound were mixed with 5 μL tracer working solution (e.g. 60 nM tracer 236 in kinase buffer for CDK2/Cyclin A) and 5 μL CDK/Cyclin/Anti-GST-AB-working solution (e.g. 15 nM CDK2/Cyclin A, 1:250 dilution of Anti-GST-AB in kinase buffer) in a well of a small volume 384 well plate (Corning Incorporated, Corning, N.Y., USA; order no. 3673). The tracer concentration was adjusted to its dissociation constant (Kd) for the CDK/Cyclin, which was 30 nM for CDK2/Cyclin A, CDK7/Cyclin H and CDK9/Cyclin T1, 20 nM for CDK8/Cyclin C, and 35 nM for CDK9/Cyclin K. For negative controls, in each well 5 μL of DMSO working solution (3% DMSO diluted in kinase buffer) was mixed with 5 μL Anti-GST-AB working solution (e.g. 1:250 dilution of Anti-GST-AB in kinase buffer for CDK2/Cyclin A) and 5 μL Tracer working solution (e.g. 60 nM Tracer 236 in kinase buffer for CDK2/Cyclin A). For positive controls, in each well 5 μL of DMSO working solution (3% DMSO diluted in kinase buffer) was mixed with 5 μL CDK/Cyclin/Anti-GST-AB-working solution: (e.g. 15 nM CDK2/Cyclin A, 1:250 dilution of Anti-GST-AB in kinase buffer) and 5 μL Tracer working solution (e.g. 60 nM Tracer 236 in kinase buffer for CDK2/Cyclin A). Positive and negative controls were calculated from at least 8 different sample wells. The 384 well plates were mixed in a Teleshaker plate mixer (Beckman Coulter, Brea, Calif., USA) at 2000 rpm for 40 sec, and incubated for 1 h at room temperature before reading. The FRET signal was measured at 340 nm excitation, 665 nm and 615 nm emission (for the kinase tracer and LanthaScreen Eu-AB, respectively) with an Envision spectrophotometer (Perkin Elmer, Waltham, Mass., USA) with 50 μs delay and 300 μs integration time. Kd values were determined from the sigmoidal dose response curves with the software Quattro Workflow (Quattro GmbH, Munich, Germany).

CDK7/CyclinH/MAT1 [1] = molecular target: T2, CDK7/CyclinH/MAT1 (Homo sapiens, UniProt P50613); test: LanthaScreen Eu Kinase Binding Assay, CDK7; settings: tracer 236, read-out: CDK7 (activity range), Kd
T2 construct: purchased Carna Biosciences
Method: as §1, §2

CDK2/CyclinA [2] = molecular target: T3, CDK2/CyclinA (Homo sapiens, UniProt P24941); test: LanthaScreen Eu Kinase Binding Assay, CDK2; settings: tracer 236, read-out: CDK2 (activity range), Kd
T3 construct: purchased Proqinase
Method: as §1, §2

CDK9 = molecular target: T4, CDK9 (Homo sapiens, UniProt P50750); test: Lance Ultra KinaSelect Assay, CDK9; assay type: biochemical; settings: ULight MBP substrate; cyclin partner not stated in Table 5; read-out: CDK9 LANCE assay (activity range), IC50
T4 construct: purchased Invitrogen
Method: (§3) This protocol describes how the Lance Ultra KinaSelect Assay was performed to determine half maximal inhibitory concentration (IC50) of compounds of general formula (I) and CDK/Cyclin complexes. The principle behind this enzymatic assay is based upon the phosphorylation of the ULight-Peptide Substrat. It is detected by using a specific EU-labeled anti-phospho peptide antibody. The binding of the Eu-labeled anti-phospho peptide antibody to the phosphorylated ULight labeled peptide gives rise to a FRET-signal. Binding of an inhibitor to the kinase prevents phosphorylation of the ULight-MBP Substrat, resulting in a loss of FRET.
(§4) The compounds of general formula (I) summarized in Table 5 were diluted from a 10 mM DMSO stock solution 1:10 in a total volume of 15 μL DMSO. This compound predilution was then serial diluted 1:3 over 8 steps in DMSO and briefly spun down. Each compound solution was now diluted 1:20 in Enzymatic Buffer (HEPES: 50 mM, pH: 7.5; MgCl2: 10 mM; EGTA: 1 mM; DTT: 2 mM; Tween-20: 0.01%), mixed thoroughly and spun down. For every sample, 2 μL of the diluted compound were mixed with 6 μL CDK/Cyclin/Substrat solution and 2 μL ATP solution in a well of a small volume 384 well plate (Corning Incorporated, Corning, N.Y., USA; order no. 3673). The CDK/Cyclin was diluted to the appropriate concentration (see Table 3) and the ATP concentration was adjusted to its […] for the CDK/Cyclin, which was 3 μM for CDK2/Cyclin A, 20 μM for CDK1/Cyclin B1, 25 μM for CDK7/Cyclin H and CDK9/Cyclin T1, 55 μM for CDK6/Cyclin D3, 90 μM for CDK4/Cyclin D1 and 125 μM for CDK9/Cyclin K. For negative controls, in each well 2 μL of DMSO solution (1% final DMSO assay concentration) was mixed with 6 μL substrate solution (50 nM ULight MBP final assay concentration) and 2 μL ATP solution (appropriate final concentration see Table 3). For positive controls, in each well 2 μL of DMSO solution (1% final DMSO assay concentration) was mixed with 6 μL CDK/Cyclin/Substrat (appropriate final concentration see Table 3) and 2 μL Tracer ATP solution (appropriate final concentration see Table 3). Positive and negative controls were calculated from at least 8 different sample wells. The 384 well plates were mixed in a Teleshaker plate mixer (Beckman Coulter, Brea, Calif., USA) at 2000 rpm for 40 sec, and incubated for 1 h at room temperature. Before reading, 10 μL the detection buffer (Lance Detection Buffer 1×; EDTA: […]; Eu-Anti-P-MBP: see Table 3) was added. The FRET signal was measured at 340 nm excitation, 665 nm and 615 nm emission (for the kinase tracer and LanthaScreen Eu-AB, respectively) with an Envision spectrophotometer (Perkin Elmer, Waltham, Mass., USA) with 50 μs delay and 300 μs integration time. IC50 values were determined from the sigmoidal dose response curves with the software Quattro Workflow (Quattro GmbH, Munich, Germany).

CDK2/CyclinA [3] = molecular target: T3, CDK2/CyclinA; test: Lance Ultra KinaSelect Assay, CDK2; assay type: biochemical; settings: ULight MBP substrate, ATP 3 μM; read-out: CDK2 LANCE assay (activity range), IC50
Method: as §3, §4

CDK7/CyclinH/MAT1 [4] = molecular target: T2, CDK7/CyclinH/MAT1; test: Lance Ultra KinaSelect Assay, CDK7; assay type: biochemical; settings: ULight MBP substrate, ATP 25 μM; read-out: CDK7 LANCE assay (activity range), IC50
Method: as §3, §4

T2 sequence (P50613 whole entry): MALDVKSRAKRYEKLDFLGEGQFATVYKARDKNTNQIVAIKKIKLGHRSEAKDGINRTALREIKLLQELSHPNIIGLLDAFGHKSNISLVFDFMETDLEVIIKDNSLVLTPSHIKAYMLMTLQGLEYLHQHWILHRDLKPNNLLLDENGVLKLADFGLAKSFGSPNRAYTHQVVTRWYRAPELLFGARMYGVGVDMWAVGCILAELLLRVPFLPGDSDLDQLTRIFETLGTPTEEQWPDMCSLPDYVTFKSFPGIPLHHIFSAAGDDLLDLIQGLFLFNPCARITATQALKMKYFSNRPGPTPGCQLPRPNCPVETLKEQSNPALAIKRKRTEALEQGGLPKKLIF
T2 sequence (P51946 whole entry partner): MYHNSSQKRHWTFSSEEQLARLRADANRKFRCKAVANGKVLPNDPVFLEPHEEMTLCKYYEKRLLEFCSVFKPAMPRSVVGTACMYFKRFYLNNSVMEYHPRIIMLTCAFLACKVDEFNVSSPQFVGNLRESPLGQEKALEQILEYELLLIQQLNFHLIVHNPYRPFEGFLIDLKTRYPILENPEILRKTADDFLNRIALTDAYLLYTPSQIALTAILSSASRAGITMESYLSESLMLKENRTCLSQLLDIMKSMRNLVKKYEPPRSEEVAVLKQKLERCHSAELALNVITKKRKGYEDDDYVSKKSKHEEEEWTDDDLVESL
T2 sequence (P51948 whole entry partner): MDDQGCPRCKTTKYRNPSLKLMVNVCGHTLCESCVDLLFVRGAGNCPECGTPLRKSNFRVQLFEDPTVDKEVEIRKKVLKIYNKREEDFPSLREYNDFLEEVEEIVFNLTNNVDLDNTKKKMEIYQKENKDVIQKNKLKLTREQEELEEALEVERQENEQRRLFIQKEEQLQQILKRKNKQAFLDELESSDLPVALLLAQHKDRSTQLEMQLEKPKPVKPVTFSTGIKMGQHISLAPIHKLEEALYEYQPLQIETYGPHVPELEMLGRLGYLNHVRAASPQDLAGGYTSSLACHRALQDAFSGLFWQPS
T1 sequence (P50750 whole entry): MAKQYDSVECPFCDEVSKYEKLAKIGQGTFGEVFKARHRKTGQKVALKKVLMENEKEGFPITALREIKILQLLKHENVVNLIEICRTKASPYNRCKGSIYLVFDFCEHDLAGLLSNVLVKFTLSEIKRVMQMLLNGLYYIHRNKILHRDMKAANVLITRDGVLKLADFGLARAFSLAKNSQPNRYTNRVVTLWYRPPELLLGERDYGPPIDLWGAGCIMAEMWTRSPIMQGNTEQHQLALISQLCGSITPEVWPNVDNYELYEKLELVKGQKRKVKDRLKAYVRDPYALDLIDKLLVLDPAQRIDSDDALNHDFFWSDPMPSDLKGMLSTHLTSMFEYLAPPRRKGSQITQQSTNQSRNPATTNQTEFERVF
T1 sequence (O60563 whole entry partner): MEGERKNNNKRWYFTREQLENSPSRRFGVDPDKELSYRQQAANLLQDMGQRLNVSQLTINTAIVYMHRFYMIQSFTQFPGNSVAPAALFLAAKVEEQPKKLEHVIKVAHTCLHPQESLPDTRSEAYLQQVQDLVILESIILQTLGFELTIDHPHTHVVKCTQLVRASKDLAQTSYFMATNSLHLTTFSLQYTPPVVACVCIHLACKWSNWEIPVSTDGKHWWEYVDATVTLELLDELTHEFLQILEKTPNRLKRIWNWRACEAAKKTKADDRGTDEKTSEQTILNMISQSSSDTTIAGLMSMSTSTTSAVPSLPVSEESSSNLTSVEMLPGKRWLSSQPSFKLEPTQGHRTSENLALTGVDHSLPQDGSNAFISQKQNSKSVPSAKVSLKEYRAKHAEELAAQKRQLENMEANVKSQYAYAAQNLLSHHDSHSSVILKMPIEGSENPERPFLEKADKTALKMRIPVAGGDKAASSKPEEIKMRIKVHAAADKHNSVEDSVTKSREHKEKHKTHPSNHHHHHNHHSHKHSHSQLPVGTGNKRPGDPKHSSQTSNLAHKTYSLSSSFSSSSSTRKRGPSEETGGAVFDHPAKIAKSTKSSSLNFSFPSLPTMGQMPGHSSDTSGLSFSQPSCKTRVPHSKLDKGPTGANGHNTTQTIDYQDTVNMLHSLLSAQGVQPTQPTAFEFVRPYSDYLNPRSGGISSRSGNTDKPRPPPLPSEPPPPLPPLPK
T4 sequence (P50750 whole entry): as the sequence (P50750 whole entry) above

pKd (CDK9/Cyclin T1)	pKd (CDK7/CyclinH/MAT1 [1])	pKd (CDK2/CyclinA [2])	pIC50 (CDK9)	pIC50 (CDK2/CyclinA [3])	pIC50 (CDK7/CyclinH/MAT1 [4])	SMILES
> 7.00	< 5.00	6.00 to 7.00	> 7.00	5.00 to 6.00	< 5.00	COc1ccccc1-c1ccnc(Nc2cccc(CCS(N)(=O)=O)c2)c1 [Compound H1, 2-[3-((4-(2-Methoxyphenyl)pyridin-2-yl)amino)phenyl]-ethanesulfonamide]
> 7.00	< 5.00	> 7.00	> 7.00	6.00 to 7.00	< 5.00	COc1ccccc1-c1ccnc(Nc2cccc(CS(N)(=O)=O)c2)c1 [Compound G2, [3-((4-(2-Methoxyphenyl)pyridin-2-yl)amino)phenyl]-methanesulfonamide]
5.00 to 6.00	< 5.00	–	–	–	–	COc1cc(F)ccc1-c1ccnc(Nc2cccc(S(=O)(=O)NC(C)(C)C)c2)c1 [Compound D2, N-(tert-Butyl)-3-[(4-(4-fluoro-2-methoxyphenyl)pyridin-2-yl)amino]-benzenesulfonamide]
